Laboratory results as given in patent US20100080786A1, “Phenyl or Pyridinyl Substituted Indazoles Derivatives” (priority 2008, published 2010).

Biological target: T1, Human Glucocorticoid Receptor (GR) (Homo sapiens, UniProt P04150)
T1 construct: The full length GR was diluted to a final concentration of 3.3% (0.495 mg/ml) in assay buffer
T1 sequence (P04150 1-777): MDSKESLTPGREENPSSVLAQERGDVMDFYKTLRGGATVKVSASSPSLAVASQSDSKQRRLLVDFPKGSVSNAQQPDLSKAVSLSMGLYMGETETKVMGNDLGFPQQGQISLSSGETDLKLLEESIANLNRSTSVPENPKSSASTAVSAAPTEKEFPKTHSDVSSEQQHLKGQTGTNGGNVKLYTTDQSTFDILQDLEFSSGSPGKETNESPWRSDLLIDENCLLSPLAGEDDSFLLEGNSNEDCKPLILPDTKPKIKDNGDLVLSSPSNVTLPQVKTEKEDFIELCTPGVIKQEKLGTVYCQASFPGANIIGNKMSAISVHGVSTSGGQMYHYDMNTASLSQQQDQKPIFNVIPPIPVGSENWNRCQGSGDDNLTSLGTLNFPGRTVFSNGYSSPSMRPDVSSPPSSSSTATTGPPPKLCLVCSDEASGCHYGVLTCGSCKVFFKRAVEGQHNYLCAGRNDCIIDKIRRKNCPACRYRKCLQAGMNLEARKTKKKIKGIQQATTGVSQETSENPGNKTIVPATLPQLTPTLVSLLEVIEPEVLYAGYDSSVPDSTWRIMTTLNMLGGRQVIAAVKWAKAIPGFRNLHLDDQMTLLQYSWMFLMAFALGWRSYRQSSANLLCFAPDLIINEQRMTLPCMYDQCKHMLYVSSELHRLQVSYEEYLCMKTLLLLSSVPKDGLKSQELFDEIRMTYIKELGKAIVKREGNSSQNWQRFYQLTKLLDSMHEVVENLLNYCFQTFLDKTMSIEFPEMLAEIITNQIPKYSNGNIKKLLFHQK
Experiment: Human Glucocorticoid Receptor (GR) radioligand binding assay (3H-dexamethasone competition)
Details: full length GR; 7 nM 3H-dexamethasone; 2 h at room temperature
Procedure: Human Glucocorticoid Receptor (GR) Assay
The radioligand GR binding assay is based on a competition assay using ^3H-labeled Dexamethasone. Dexamethasone is known to bind in the ligand binding domain of GR and compete for binding with endogenous ligands like e.g. cortisol (Necela, 2003). In the GR radioligand binding assay, test compounds were serially diluted in semi-log steps (10 concentrations) with a final concentration of 10 μM. Test compounds (1 μL) and controls (1 μL) in 100% DMSO were added to 96 Greiner V-bottom polypropylene plates. 0% control was 6.7% DMSO (final concentration in assay) and 100% control was 6.7 μM Dexamethasone.
The full length GR was diluted to a final concentration of 3.3% (0.495 mg/ml) in assay buffer (20 mM Tris-HCl, 1 mM EDTA, 10% (w/v) Glycerol, 20 mM Sodium molybdate, pH 7.4). 45 μL of GR was added to each well and the plates were incubated for 15 min at room temperature.
^3H-dexamethasone solution was diluted to a concentration of 70 nM in assay buffer (7 nM final assay concentration) and 5 μL was added to each well. The samples were mixed for 5 min using a plate shaker at 700 rpm, before incubation for 2 h at room temperature.
50 μL ice-cold charcoal solution (pH 7.4:2% Charcoal, 0.2% Dextran T70 in 20 mM Tris-HCl, 1 mM EDTA and 20 mM Sodium molybdate) was added to each well and the samples were mixed on plate shaker for 5 minutes.
The plate was then centrifuged for 1.5 min at 1500 rpm, the samples (80 μL) were is transferred from each well to a filter plate (Millipore, 0.45 μm, MHVBN45) on a vacuum manifold and then collected into new plates (Greiner, 96 well white/transparent, 655095). The filter plate was washed once with 20 μl of water and then 100 μL of scintillation liquid was added to each well and mixed by incubation on plate shaker for 5 min. Radioactivity was measured in a 1450 Microbeta Trilux Reader (Wallac) counting cpm for 2 minutes per well. The data obtained from each replicate experiment were analysed using the software ActivityBase, version 5.4.3 (ID Business Solutions Ltd) and IC50 values were calculated. Ref: Necela, B M, Cidlowski, J A, Trends Pharmacol Sci, 24: 58, 2003

IC50 [nM]	Compound
1.39	COc1ccc([C@@H](Oc2ccc3c(cnn3-c3cccc(C(=O)NCc4cccnc4)c3)c2)[C@H](C)NC(=O)C(C)(F)F)cn1 [Example 28, 3-(5-{[(1R,2S)-2-[(2,2-difluoropropanoyl)amino]-1-(6-methoxypyridin-3-yl)propyl]oxy}-1H-indazol-1-yl)-N-(pyridin-3-ylmethyl)benzamide]
1.69	C[C@H](NC(=O)C(C)(F)F)[C@H](Oc1ccc2c(cnn2-c2cccc(C(=O)NCCO)c2)c1)c1ccccc1 [Example 3, 3-[5-({(1R,2S)-2-[(2,2-difluoropropanoyl)amino]-1-phenylpropyl}oxy)-1H-indazol-1-yl]-N-(2-hydroxyethyl)benzamide]
4.13	CCC(O)CNC(=O)c1cccc(-n2ncc3cc(O[C@H](c4ccc(OC)nc4)[C@H](C)NC(=O)C(C)(F)F)ccc32)c1 (stereo partly drawn) [Example 26, 3-(5-{[(1R,2S)-2-[(2,2-difluoropropanoyl)amino]-1-(6-methoxypyridin-3-yl)propyl]oxy}-1H-indazol-1-yl)-N-(2-hydroxybutyl)benzamide]
